{
  "source": "patent US7160898B2",
  "about": "“Pharmacological treatment for sleep apnea” (Board of Trustees of The University of Illinois, priority 2002, dated 2007)",
  "key": {"[1]": {"tested_on": "spontaneous sleep-related central apneas", "experiment": "Induction and suppression of sleep apneas by serotonin and GR38032F (Example 3)", "type": "in vivo, rat (Sprague-Dawley)", "settings": "6 hour recording", "experimental": "Ten adult male Sprague-Dawley rats (Sasco-King, Wilmington, Mass.; 300 g) were maintained on a 12-h light (08:00–20:00 hour)/12-hour dark (20:00–08:00) cycle for one week, housed in individual cages, and given ad libitum access to food and water. Following the one week of acclimatization, animals were prepared for physiological testing via the surgical procedures (i.e., implantation of cortical electrodes for EEG recording and neck muscle electrodes for EMG recording, implantation of a radiotelemetry transmitter for BP and HP monitoring) as set forth above in Example 1. After completion of the surgical procedures, animals were allowed a one week recovery period prior to use in the present study. Each animal was recorded on four occasions, with recordings for an individual animal separated by at least three days. Fifteen minutes prior to each recording, each animal received (via intraperitoneal injection), in random order, one of the following: (a) saline solution (control); (b) 0.79 mg/kg serotonin; (c) 0.1 mg/kg GR38032F plus 0.79 mg/kg serotonin; or (d) 0.1 mg/kg GR38032F. For the GR38032F+serotonin test group, 0.1 mg/kg GR38032F was administered at time 09:30 followed by 0.79 mg/kg serotonin at time 09:45. Polygraphic recordings were made from 10:00–16:00. Respiration BP, EEG, and EMG data were determined and recorded via the experimental procedure as specifically set forth above in Example 2. As in Example 2, sleep apneas, defined as cessation of respiratory effort for at least 2.5 s, were scored for each recording session and were associated with the stage in which they occurred: NREM or REM sleep. The duration requirement of 2.5 s represents at least two “missed” breaths, which is analogous to a 10-s apnea duration requirement in humans. The effects of sleep stage (NREM vs REM) and injection (control vs. administration of either serotonin alone, GR38032F+serotonin, or GR38032F alone) on apnea indexes, respiratory pattern, BP, and HP were tested using analysis of variance (ANOVA) with repeated measures. Multiple comparisons were controlled using Fisher's protected least-significance difference (PLSD). One-way ANOVA was also performed by nonparametric (Kruskal-Wallis) analysis. Conclusions using parametric and nonparametric ANOVA were identical in all cases."}, "[2]": {"tested_on": "sleep/wake architecture", "experiment": "Sleep/wake architecture after 5-HT and GR38032F (Example 3)", "type": "in vivo, rat (Sprague-Dawley)", "settings": "i.p.", "experimental": "Sleep and waking states were assessed using the biparietal EEG and nuchal EMG signals on 10-second epochs as described by Bennington et al. [Sleep, 17:28–36 (1994)]. This software discriminated wakefulness (W) as a high frequency low amplitude EEG with a concomitant high EMG tone, NREM sleep by increased spindle and […] activity together with decreased EMG tone, and REM sleep by a […] activity and an absence of EMG tone. Sleep efficiency was measured as the percentage of total recorded epochs staged as NREM or REM sleep.\n(§1) Each animal was recorded on four occasions, with recordings for an individual animal separated by at least three days. Fifteen minutes prior to each recording, each animal received (via intraperitoneal injection), in random order, one of the following: (a) saline solution (control); (b) 0.79 mg/kg serotonin; (c) 0.1 mg/kg GR38032F plus 0.79 mg/kg serotonin; or (d) 0.1 mg/kg GR38032F. For the GR38032F+serotonin test group, 0.1 mg/kg GR38032F was administered at time 09:30 followed by 0.79 mg/kg serotonin at time 09:45. Polygraphic recordings were made from 10:00–16:00.\n(§2) Respiration BP, EEG, and EMG data were determined and recorded via the experimental procedure as specifically set forth above in Example 2. As in Example 2, sleep apneas, defined as cessation of respiratory effort for at least 2.5 s, were scored for each recording session and were associated with the stage in which they occurred: NREM or REM sleep. The duration requirement of 2.5 s represents at least two “missed” breaths, which is analogous to a 10-s apnea duration requirement in humans.\n(§3) The effects of sleep stage (NREM vs REM) and injection (control vs. administration of either serotonin alone, GR38032F+serotonin, or GR38032F alone) on apnea indexes, respiratory pattern, BP, and HP were tested using analysis of variance (ANOVA) with repeated measures. Multiple comparisons were controlled using Fisher's protected least-significance difference (PLSD). One-way ANOVA was also performed by nonparametric (Kruskal-Wallis) analysis. Conclusions using parametric and nonparametric ANOVA were identical in all cases."}, "[3]": {"tested_on": "RR, VE, mean BP, HP", "experiment": "Respiratory pattern, BP and HP after serotonin and GR38032F (Example 3)", "type": "in vivo, rat (Sprague-Dawley)", "experimental": "Similar software (Experimenters' Workbench; Datawave Technologies, Longmont, Colo.) was employed to analyze the blood pressure waveform; for each beat of each recording, systolic (SBP) and diastolic (DBP) blood pressures and pulse interval were measured. The pulse interval provided a beat by beat estimate of HP. Mean BP (MBP) was estimated according to the weighted average of SBP and DBP for each beat: MBP=DBP+(SBP−DBP)/3. The parameters for each beat were also classified according to the sleep/wake state and recording hour during which they occurred.\nas §1, §2\nas §3, with “Conclusions using parametric and nonparametric ANOVA were identical in all cases.” left out"}, "[4]": {"tested_on": "5-hydroxytryptamine receptors", "settings": "anesthetized animals, cited from earlier work; for apnea after intravenous administration: duration increased dose-dependently"}, "[5]": {"tested_on": "sleep apnea syndrome", "settings": "cited from earlier work; for effect in patients with sleep apnea: literature reports"}, "[6]": {"tested_on": "animal model of sleep apnea", "settings": "U.S. Pat. No. 5,075,290; cited from earlier work"}, "[7]": {"settings": "percent recording time, 6 hours, 5-HT 0.79 mg/kg, GR38032F 0.1 mg/kg, mean ± SE"}},
  "data": [
    {"compound": "NCCc1c[nH]c2ccc(O)cc12", "note": "[serotonin, 5-hydroxytryptamine]", "values": [
      {"measurement": "spontaneous apnea index during NREM sleep", "setting": "[1]; i.p., serotonin 0.79 mg/kg, GR38032F 0.1 mg/kg", "value": "not affected by any drug treatment"},
      {"measurement": "increase of spontaneous apnea expression during REM sleep compared to control", "setting": "[1]; serotonin 0.79 mg/kg i.p.", "value": "> 250", "unit": "%"},
      {"measurement": "effect on sleep architecture", "setting": "[2]; 6 hours of polygraphic recording", "value": "had no effect on sleep architecture"},
      {"measurement": "% NREM", "setting": "[2]; [7]", "value": "59.9 ± 3.3", "unit": "%"},
      {"measurement": "% REM", "setting": "[2]; [7]", "value": "6.5 ± 1.1", "unit": "%"},
      {"measurement": "% Wakefulness", "setting": "[2]; [7]", "value": "30.2 ± 3.2", "unit": "%"},
      {"measurement": "effect on RR, VE, mean BP, HP, or PS apnea index", "setting": "[3]; i.p., serotonin 0.79 mg/kg, GR38032F 0.1 mg/kg, data not shown", "value": "had no effect on sleep, cardiovascular variables, RR, or VE"},
      {"measurement": "beat-to-beat heart rate and BP variability (coefficients of variation)", "setting": "[3]; serotonin 0.79 mg/kg i.p.", "value": "unaffected"},
      {"measurement": "changes in heart rate or mean BP", "setting": "[3]; serotonin 0.79 mg/kg i.p., 6 hour recording period", "value": "did not elicit changes in either heart rate or mean BP"},
      {"measurement": "apnea after intravenous administration", "setting": "[4]", "value": "produced transient apnea"}
    ]},
    {"compound": "O=C(c1ccc(F)cc1)C1CCN(CCn2c(=O)[nH]c3ccccc3c2=O)CC1", "note": "[ketanserine]", "values": [
      {"measurement": "antagonism of agonist-induced transient apnea", "setting": "[4]", "value": "significantly antagonized"}
    ]},
    {"compound": "Cc1[nH]c2ccc(O)cc2c1CCN", "note": "[2-methyl-5-hydroxytryptamine]", "values": [
      {"measurement": "apnea after intravenous administration", "setting": "[4]", "value": "produced transient apnea"}
    ]},
    {"compound": "N[C@@H](Cc1c[nH]c2ccccc12)C(=O)O", "note": "[L-tryptophan]", "values": [
      {"measurement": "effect in patients with sleep apnea", "setting": "[5]", "value": "may have a beneficial effect on sleep apnea syndrome"}
    ]},
    {"compound": "CNCCC(Oc1ccc(C(F)(F)F)cc1)c1ccccc1", "note": "(centres unmarked) [fluoxetine]", "values": [
      {"measurement": "effect in patients with sleep apnea", "setting": "[5]", "value": "benefit some but not all patients with sleep apnea syndrome"}
    ]},
    {"compound": "CCN1CC(CCN2CCOCC2)C(c2ccccc2)(c2ccccc2)C1=O", "note": "(centres unmarked) [doxapram]", "values": [
      {"measurement": "effect in patients with sleep apnea", "setting": "[5]", "value": "decrease the length of apneas but did not alter the average arterial oxygen saturation"}
    ]},
    {"compound": "CNCCCC1c2ccccc2C=Cc2ccccc21", "note": "[Protriptyline]", "values": [
      {"measurement": "effect in patients with sleep apnea", "setting": "[5]", "value": "variable results and frequent and significant side effects"}
    ]},
    {"compound": "O=C1CC2(CCCC2)CC(=O)N1CCCCN1CCN(c2ncccn2)CC1", "note": "[buspirone]", "values": [
      {"measurement": "patients with sleep apnea syndrome with reduced apnea index", "setting": "[5]; Mendelson et al. 1991", "value": "4 of 5"},
      {"measurement": "effect in patients with sleep apnea", "setting": "[5]", "value": "eliminate post-surgical apneustic breathing in one child"}
    ]},
    {"compound": "Cn1c(=O)c2[nH]cnc2n(C)c1=O", "note": "[theophylline]", "values": [
      {"measurement": "effect in patients with sleep apnea", "setting": "[5]", "value": "may benefit patients with central apnea but appears to be of no use in adult patients with obstructive apnea"}
    ]},
    {"compound": "CC[C@@H](CO)NC(=O)[C@@H]1C=C2c3cccc4c3c(cn4C)C[C@H]2N(C)C1", "note": "[methysergide]", "values": [
      {"measurement": "antagonism of agonist-induced transient apnea", "setting": "[4]", "value": "significantly antagonized"}
    ]},
    {"compound": "Fc1ccc([C@@H]2CCNC[C@H]2COc2ccc3c(c2)OCO3)cc1", "note": "[paroxetine]", "values": [
      {"measurement": "effect in patients with sleep apnea", "setting": "[5]", "value": "benefit some but not all patients with sleep apnea syndrome"}
    ]},
    {"compound": "CC(=O)Nc1nnc(S(N)(=O)=O)s1", "note": "[acetazolamide]", "values": [
      {"measurement": "effect in patients with sleep apnea", "setting": "[5]", "value": "variable improvement in individuals with primary central apneas but caused an increase in obstructive apneas"}
    ]},
    {"compound": "C=CCN1CC[C@]23c4c5ccc(O)c4O[C@H]2C(=O)CC[C@@]3(O)[C@H]1C5", "note": "[naloxone]", "values": [
      {"measurement": "effect in patients with sleep apnea", "setting": "[5]", "value": "only slightly helpful"}
    ]},
    {"compound": "Nc1ncnc2c1ncn2[C@@H]1O[C@H](CO)[C@@H](O)[C@H]1O", "note": "[adenosine]", "values": [
      {"measurement": "reduction of apnea", "setting": "[6]", "value": "somewhat effective in reducing apnea"}
    ]},
    {"compound": "medroxyprogesterone", "values": [
      {"measurement": "effect in patients with sleep apnea", "setting": "[5]", "value": "no consistent benefit in OSAS"}
    ]},
    {"compound": "CC(N)Cc1c[nH]c2ccc(O)cc12", "note": "(centres unmarked) [a-methyl-5-hydroxytryptamine]", "values": [
      {"measurement": "apnea after intravenous administration", "setting": "[4]", "value": "produced transient apnea"}
    ]}
  ]
}
